Measured values reported in patent US20220324876A1, “4-SUBSTITUTED PYRANO[3,4,b]PYRAZINE KAPPA AGONISTS FOR TREATING DRUG DEPENDENCY” (The Rockefeller University, priority 2019, published 2022).
Where two headings read alike, the source gives them in different places.

Target: T1, human kappa opioid receptors (Homo sapiens, UniProt P41145)
T1 construct: expressed in transfected cells; host or cells: U2OS
Test: [35S]GTPγS binding, membranes from U2OS cells
Format: biochemical
Settings: for Emax: read-out: GTPγS (% efficacy)

T1 sequence (P41145 whole entry): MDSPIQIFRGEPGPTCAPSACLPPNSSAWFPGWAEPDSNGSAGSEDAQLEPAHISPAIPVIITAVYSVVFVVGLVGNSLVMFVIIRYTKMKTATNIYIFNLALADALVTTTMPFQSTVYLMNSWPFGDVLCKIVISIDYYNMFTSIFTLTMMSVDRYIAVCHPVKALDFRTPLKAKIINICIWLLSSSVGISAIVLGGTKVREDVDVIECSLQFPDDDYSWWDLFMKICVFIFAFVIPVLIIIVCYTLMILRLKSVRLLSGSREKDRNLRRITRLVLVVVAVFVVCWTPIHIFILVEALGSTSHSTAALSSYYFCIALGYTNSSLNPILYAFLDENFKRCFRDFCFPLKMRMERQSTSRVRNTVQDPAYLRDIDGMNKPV

Compound | EC50 (GTPγS EC50 (nM), Table D) [nM] | Emax [%] | EC50 [nM]
O=C(Cc1ccc(Cl)c(Cl)c1)N1CCN(Cc2cn[nH]c2)[C@@H]2COC[C@H](N3CCCC3)[C@H]21 (racemic) [rac-5A107] | 3.9 | 112 | 
O=C(Cc1ccc(Cl)c(Cl)c1)N1CCN(C(=O)c2cn[nH]c2)[C@@H]2COC[C@H](N3CCCC3)[C@H]21 (racemic) [rac-5A123] | 39 | 62 | 
O=C(Cc1ccc(Cl)c(Cl)c1)N1CCN(C(=O)CO)[C@@H]2COC[C@H](N3CCCC3)[C@H]21 (single isomer, unassigned) [Example 5A95A] | 21 | 87 | 
O=C(O)CN1CCN(C(=O)Cc2ccc(Cl)c(Cl)c2)[C@H]2[C@H]1COC[C@@H]2N1CCCC1 (racemic) [rac-5A88] |  | 83 | 2490
O=C(Cc1ccc(Cl)c(Cl)c1)N1CCN(C(=O)C2(O)CCCC2)[C@@H]2COC[C@H](N3CCCC3)[C@H]21 (single isomer, unassigned) [Example 5A125A] | 58 | 95 | 
O=C(Cc1ccc(Cl)c(Cl)c1)N1CCN(Cc2ccc(F)cc2)[C@H]2COC[C@@H](N3CCCC3)[C@@H]21 (single isomer, unassigned) [Example 5A136B] | 74 | 129 | 
CN(C)S(=O)(=O)N1CCN(C(=O)Cc2ccc(Cl)c(Cl)c2)[C@H]2[C@H](N3CCCC3)COC[C@@H]21 (single isomer, unassigned) [Example 5A56B] | 123 | 122 | 
CC(F)(F)CN1CCN(C(=O)Cc2ccc(Cl)c(Cl)c2)[C@H]2[C@H](N3CCCC3)COC[C@@H]21 [Example 5A127B] | 24 | 88 | 
O=C(Cc1ccc(Cl)c(Cl)c1)N1CCN(Cc2ccn[nH]2)[C@@H]2COC[C@H](N3CCCC3)[C@H]21 (racemic) [rac-5A108] | 26 | 98 | 
O=C(Cc1ccc(Cl)c(Cl)c1)N1CCN(Cc2cccc(F)c2)[C@H]2COC[C@@H](N3CCCC3)[C@@H]21 (single isomer, unassigned) [Example 5A145B] | 9.7 | 91 | 
O=C(Cc1ccc(Cl)c(Cl)c1)N1CCN(C(=O)C2(O)CC2)[C@H]2COC[C@@H](N3CCCC3)[C@@H]21 (single isomer, unassigned) [Example 5A126B] | 17 | 107 | 
O=C(Cc1ccc(Cl)c(Cl)c1)N1CCN(CCO)[C@@H]2COC[C@H](N3CCCC3)[C@H]21 (single isomer, unassigned) [Example 5A74A] | 21 | 95 | 
O=C(Cc1ccc(Cl)c(Cl)c1)N1CCN(Cc2ncon2)[C@@H]2COC[C@H](N3CCCC3)[C@H]21 (racemic) [rac-5A100] | 1.9 | 86 | 
O=C(Cc1ccc(Cl)c(Cl)c1)N1CCN(C(=O)C2(O)CC2)[C@@H]2COC[C@H](N3CCCC3)[C@H]21 (single isomer, unassigned) [Example 5A126A] | 16 | 98 | 
Cc1noc(CN2CCN(C(=O)Cc3ccc(Cl)c(Cl)c3)[C@H]3[C@H]2COC[C@@H]3N2CCCC2)n1 (racemic) [rac-5A105] | 19 | 82 | 
NC(=O)CN1CCN(C(=O)Cc2ccc(Cl)c(Cl)c2)[C@H]2[C@H]1COC[C@@H]2N1CCCC1 (racemic) [rac-5A102] | 37 | 96 | 
O=C(Cc1ccc(Cl)c(Cl)c1)N1CCN(CC2COC2)[C@H]2COC[C@@H](N3CCCC3)[C@@H]21 (single isomer, unassigned) [Example 5A83B] | 24 | 113 | 
CCNC(=O)CN1CCN(C(=O)Cc2ccc(Cl)c(Cl)c2)[C@H]2[C@H]1COC[C@@H]2N1CCCC1 (racemic) [rac-5A112] | 85 | 75 | 
O=C(Cc1ccc(Cl)c(Cl)c1)N1CCN(Cc2cccc(F)c2)[C@@H]2COC[C@H](N3CCCC3)[C@H]21 (single isomer, unassigned) [Example 5A145A] | 5 | 95 | 
CC(O)CN1CCN(C(=O)Cc2ccc(Cl)c(Cl)c2)[C@H]2[C@H]1COC[C@@H]2N1CCCC1 (stereo partly drawn) [Example 5A89] | 34 | 93 | 
O=C(Cc1ccc(Cl)c(Cl)c1)N1CCN(Cc2ncco2)[C@@H]2COC[C@H](N3CCCC3)[C@H]21 (racemic) [rac-5A111] | 9.8 | 146 | 
Cn1cc(CN2CCN(C(=O)Cc3ccc(Cl)c(Cl)c3)[C@H]3[C@H]2COC[C@@H]3N2CCCC2)cn1 (racemic) [rac-5A79] |  | 82 | 107
CN(C)S(=O)(=O)N1CCN(C(=O)Cc2ccc(Cl)c(Cl)c2)[C@H]2[C@H]1COC[C@@H]2N1CCCC1 (single isomer, unassigned) [Example 5A56A] | 11 | 77 | 
O=C(Cc1ccc(Cl)c(Cl)c1)N1CCN(C(=O)C2(O)CCCC2)[C@H]2COC[C@@H](N3CCCC3)[C@@H]21 (single isomer, unassigned) [Example 5A125B] | 35 | 81 | 

Compound | EC50 (GTPγS EC50 (nM), Table D) [nM] | Emax [%] | EC50 [nM]
O=C(Cc1ccc(Cl)c(Cl)c1)N1CCN(Cc2ccon2)[C@@H]2COC[C@H](N3CCCC3)[C@H]21 [Example 5A86A] | 1 | 99 | 
N#CCN1CCN(C(=O)Cc2ccc(Cl)c(Cl)c2)[C@H]2[C@H]1COC[C@@H]2N1CCCC1 (racemic) [rac-5A87] | 20 | 115 | 
O=C(Cc1ccc(Cl)c(Cl)c1)N1CCN(CCC2COC2)[C@@H]2COC[C@H](N3CCCC3)[C@H]21 (single isomer, unassigned) [Example 5A142A] | 70 | 77 | 
COCCS(=O)(=O)N1CCN(C(=O)Cc2ccc(Cl)c(Cl)c2)[C@H]2[C@H]1COC[C@@H]2N1CCCC1 (single isomer, unassigned) [Example 5A146A] | 9.2 | 91 | 
O=C(Cc1ccc(Cl)c(Cl)c1)N1CCN(C(=O)c2ccno2)[C@@H]2COC[C@H](N3CCCC3)[C@H]21 (racemic) [rac-5A121] | 17 | 86 | 
Cc1nnc(CN2CCN(C(=O)Cc3ccc(Cl)c(Cl)c3)[C@H]3[C@H]2COC[C@@H]3N2CCCC2)o1 (racemic) [rac-5A118] | 40 | 91 | 
O=C(Cc1ccc(Cl)c(Cl)c1)N1CCN(Cc2ncccn2)[C@@H]2COC[C@H](N3CCCC3)[C@H]21 (racemic) [rac-5A69] | 94 | 114 | 
CC(F)(F)CN1CCN(C(=O)Cc2ccc(Cl)c(Cl)c2)[C@H]2[C@H]1COC[C@@H]2N1CCCC1 [Example 5A127A] | 5.3 | 110 | 
O=C(Cc1ccc(Cl)c(Cl)c1)N1CCN(S(=O)(=O)CCO)[C@@H]2COC[C@H](N3CCCC3)[C@H]21 (single isomer, unassigned) [Example 5A140A] | 20 | 112 | 
O=C(Cc1ccc(Cl)c(Cl)c1)N1CCN(S(=O)(=O)CCO)[C@H]2COC[C@@H](N3CCCC3)[C@@H]21 (single isomer, unassigned) [Example 5A140B] | 22 | 107 | 
O=C(Cc1ccc(Cl)c(Cl)c1)N1CCN(CC2CCS(=O)(=O)CC2)[C@@H]2COC[C@H](N3CCCC3)[C@H]21 (racemic) [rac-5A85] |  | 100 | 320
O=C(Cc1ccc(Cl)c(Cl)c1)N1CCN(C(=O)CO)[C@H]2COC[C@@H](N3CCCC3)[C@@H]21 (single isomer, unassigned) [Example 5A95B] | 202 | 78 | 
COCCN1CCN(C(=O)Cc2ccc(Cl)c(Cl)c2)[C@H]2[C@H](N3CCCC3)COC[C@@H]21 (single isomer, unassigned) [Example 5A141B] | 26 | 103 | 
O=C(Cc1ccc(Cl)c(Cl)c1)N1CCN(Cc2ccc(F)cc2)[C@@H]2COC[C@H](N3CCCC3)[C@H]21 (single isomer, unassigned) [Example 5A136A] | 7 | 105 | 
O=C(Cc1ccc(Cl)c(Cl)c1)N1CCN(CCCO)[C@@H]2COC[C@H](N3CCCC3)[C@H]21 (racemic) [rac-5A75] | 39 | 89 | 
COCCS(=O)(=O)N1CCN(C(=O)Cc2ccc(Cl)c(Cl)c2)[C@H]2[C@H](N3CCCC3)COC[C@@H]21 (single isomer, unassigned) [Example 5A146B] | 115 | 127 | 
O=C(Cc1ccc(Cl)c(Cl)c1)N1CCN(Cc2ccccn2)[C@@H]2COC[C@H](N3CCCC3)[C@H]21 (racemic) [rac-5A80] | 64 | 94 | 
O=C(Cc1ccc(Cl)c(Cl)c1)N1CCN(C(=O)c2ccon2)[C@@H]2COC[C@H](N3CCCC3)[C@H]21 (racemic) [rac-5A97] | 0.8 | 88 | 
Cn1nccc1CN1CCN(C(=O)Cc2ccc(Cl)c(Cl)c2)[C@H]2[C@H]1COC[C@@H]2N1CCCC1 (racemic) [rac-5A104] | 9 | 74 | 
O=C(Cc1ccc(Cl)c(Cl)c1)N1CCN(CCO)[C@H]2COC[C@@H](N3CCCC3)[C@@H]21 (single isomer, unassigned) [Example 5A74B] | 12 | 95 | 
O=C(Cc1ccc(Cl)c(Cl)c1)N1CCN(CC2CCCO2)[C@H]2COC[C@@H](N3CCCC3)[C@@H]21 (single isomer, unassigned) [Example 5A138D] | 100 | 102 | 
O=C(Cc1ccc(Cl)c(Cl)c1)N1CCN(Cc2cccnc2)[C@@H]2COC[C@H](N3CCCC3)[C@H]21 (racemic) [rac-5A81] | 7.4 | 95 | 
COCCN1CCN(C(=O)Cc2ccc(Cl)c(Cl)c2)[C@H]2[C@H]1COC[C@@H]2N1CCCC1 (single isomer, unassigned) [Example 5A141A] | 37 | 96 | 
CS(=O)(=O)CCN1CCN(C(=O)Cc2ccc(Cl)c(Cl)c2)[C@H]2[C@H]1COC[C@@H]2N1CCCC1 (racemic) [rac-5A94] | 27 | 109 | 
